This is an account of results in paper PMC7312375, “A Novel, Pan-PDE Inhibitor Exerts Anti-Fibrotic Effects in Human Lung Fibroblasts via Inhibition of TGF-β Signaling and Activation of cAMP/PKA Signaling” (International Journal of Molecular Sciences, 2020).

In assay [1] the test system is MRC-5 cells. Description: Intracellular calcium measurements (Fluo-4). The format is cell-based, human. The conditions noted are these: 10 µM, acute application. How it is done:
MRC-5 cells were briefly washed with NaHEPES buffer (NaHEPES buffer was prepared as follows: NaCl 140 mM, KCl 4.7 mM, HEPES 10 mM, MgCl2 1 mM, glucose 10 mM; pH 7.3) and then loaded with 1 µM Fluo-4 AM (Thermo Fisher Scientific, Waltham, MA, USA) for 1 h, 37 °C in NaHEPES. After the incubation, the cells were washed again with fresh NaHEPES and used for experiments in a flow chamber perfused with NaHEPES-based extracellular solution supplemented with 1 mM CaCl2. All experiments were carried out at room temperature using Zeiss LSM 880 confocal microscope (40× oil objective), excitation was set to 488 nm, and the emission was between 500 and 600 nm. Each series of images was recorded at 256 × 256-pixel resolution, two consecutive frames were averaged, and the interval between the averaged images was set at 2 s. Fluorescence signals were plotted as F/F0, where F0 was baseline fluorescence defined as the averaged signal from ten consecutive baseline images.

The subject of assay [2] is MRC-5 cells. Nature of the assay: FBS-induced MRC-5 proliferation, alamarBlue assay. As to conditions: for MRC-5 proliferation [% of control]: Table S1 (Figure 2B), 48 h with FBS. The format is cell-based, human. How it is done: The normal human lung fibroblast cell line—MRC-5 (ATCC® CCL-171™, Manassas, VA, USA)—was used in the study. Cells were cultured in Eagle’s Minimum Essential Medium (EMEM, ATCC® 30-2003™, Manassas, VA, USA) supplemented with 10% (v/v) fetal bovine serum (FBS; Gibco, Thermo Fisher Scientific, Waltham, MA, USA) and antibiotics mixture (penicillin, streptomycin, amphotericin B; Gibco, Thermo Fisher Scientific, Waltham, MA, USA) (standard culture medium) in standard culture conditions (5% CO2, 37 °C, 95% humidity). Unless otherwise specified, for the experiments, cells were seeded at a final density (5 × 10^3/cm^2) in standard culture medium for 24 h and then cultured in EMEM at reduced serum content (0.5%; v/v) for additional 24 h. TGF-β1 (BD Biosciences, San Jose, CA, USA) was administered at 5 ng/mL concentration in all experiments.
MRC-5 cell viability was evaluated using CytoTox-ONE™ Homogeneous Membrane Integrity Assay (Promega Corporation, Madison, WI, USA) according to the manufacturer’s protocol. The average fluorescence intensity with an excitation wavelength of 560 nm and an emission wavelength of 590 nm was measured using a microplate reader (SpectraMax® iD3, Molecular Devices, San Jose, CA, USA). Experiments were run three times in duplicates. MRC-5 proliferation was determined using the alamarBlue® assay. Cells were seeded for 24 h in standard culture medium, then serum-starved for an additional three days. Evaluated compounds (1-50 µM) were added 1 h prior FBS (10%, v/v) for an additional 48 h. After incubation, the alamarBlue® reagent (Invitrogen, Life Technologies, Carlsbad, CA, USA), dissolved in Hank’s Balanced Salt Solution (10% v/v; Gibco, Thermo Fisher Scientific, Waltham, MA, USA), was added for 30 min. After the observed color change, the supernatant was transferred to 96-well plates, and the absorbance was measured at 570 and 600 nm. The percent difference in reduction between treated and control cells was calculated according to the manufacturer’s protocol. The experiments were run three times in duplicates.

Turning to `CC(C)CN1C(=O)/C(=C/C(=O)O)c2cccc(F)c21` [ASP 7663, (E)-2-(7-fluoro-1-isobutyl-2-oxoindolin-3-ylidene)acetic acid, reference compound], in assay [1], the “increase in average Ca2+ response area over baseline” value is reported as 10 fold. In addition, the inhibition at 50 µM in assay [2] (Homo sapiens, MRC5, 50 µM, read-out: inhibition of FBS-induced MRC-5 proliferation rate) came to 14%. The “MRC-5 proliferation [% of control]” value in assay [2] (1 µM) was 99 % of control; in assay [2] (5 µM), 97 % of control; in assay [2] (10 µM) it was 96 % of control; in assay [2] (15 µM), 92 % of control; in assay [2] (20 µM), 89 % of control; in assay [2] (50 µM) it was 86 % of control.
